Reference: ChEMBL document CHEMBL1201862, “PubChem BioAssay data set” (2004)
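Dose response: 5 concentrations. Exposure: 48 h. Format: 96-well plates. Endpoint: linear interpolation; highest concentration if not reached. GI50 is the concentration that inhibits growth by half.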 Active and inactive are the calls of the source. Cut-off read from the data, not from the text of the source: active = GI50 up to about 1.1 µM and inactive = higher.

How the values were obtained:
Assay in all cases: NCI tumour cell line growth inhibition, 48 h
SN12C = system: SN12C
NCI-H522 = system: NCI-H522
UO-31 = system: UO-31
XF498 = system: XF498
DMS-114 = system: DMS-114
HCT-116 = system: HCT-116
A498 = system: A498
HOP-18 = system: HOP-18
KM12 = system: KM12
UACC-257 = system: UACC-257
Malme-3M = system: Malme-3M
M14 = system: M14
786-0 = system: 786-0
M19-MEL = system: M19-MEL

| Compound | GI50 (SN12C) | GI50 (NCI-H522) | GI50 (UO-31) | GI50 (XF498) | GI50 (DMS-114) | GI50 (HCT-116) | GI50 (A498) | GI50 (HOP-18) | GI50 (KM12) | GI50 (UACC-257) | GI50 (Malme-3M) | GI50 (M14) | GI50 (786-0) | GI50 (M19-MEL) |
| --- | --- | --- | --- | --- | --- | --- | --- | --- | --- | --- | --- | --- | --- | --- |
| COc1ccc2c(c1)c(=O)c1ccccc1n2/C=C/C(=O)O | > 100 µM (inactive) | > 100 µM (inactive) | > 100 µM (inactive) | > 100 µM (inactive) | > 83.6 µM (inactive) | > 100 µM (inactive) | > 100 µM (inactive) | > 100 µM (inactive) | > 100 µM (inactive) | > 100 µM (inactive) | > 100 µM (inactive) | > 100 µM (inactive) | > 100 µM (inactive) |  |
| NC(Cc1cc(I)c(O)c(I)c1)C(=O)O (stereo not drawn) | > 500 µM (inactive) | 44.5 µM (inactive) | > 500 µM (inactive) | > 348 µM (inactive) | 185 µM (inactive) | 470 µM (inactive) | > 500 µM (inactive) | 466 µM (inactive) | > 500 µM (inactive) | 293 µM (inactive) | > 500 µM (inactive) |  |  | > 323 µM (inactive) |
| Cc1nc2ccc(C(F)(F)F)cc2nc1Nc1ccc(Cl)c(Cl)c1 | 11.9 µM (inactive) |  | 12.2 µM (inactive) | 10 µM (inactive) |  | 10.5 µM (inactive) |  | 15.3 µM (inactive) |  | 12.8 µM (inactive) | 19.9 µM (inactive) |  | 4.69 µM (inactive) | 12.1 µM (inactive) |
| CC(=O)Nc1cccc2[nH]c3ccccc3c(=O)c12 | 22.4 µM (inactive) | 10.3 µM (inactive) | 10.2 µM (inactive) | 23.1 µM (inactive) | 25.6 µM (inactive) | 11.5 µM (inactive) | 14.9 µM (inactive) | 6.82 µM (inactive) | 17.7 µM (inactive) | 25.2 µM (inactive) | 22.3 µM (inactive) | 30.9 µM (inactive) | 17.6 µM (inactive) | 21.8 µM (inactive) |
| CCC(C)C(=O)c1c(O)c(C/C=C(\C)CCC=C(C)C)c(O)c2c(C(O)CC)cc(=O)oc12 (stereo not drawn) | 1.71 µM (inactive) | 0.871 µM (active) | 2.24 µM (inactive) | 1.82 µM (inactive) | 0.498 µM (active) | 0.867 µM (active) | 2.05 µM (inactive) |  | 2.51 µM (inactive) | 2.21 µM (inactive) | 2.24 µM (inactive) | 3.31 µM (inactive) |  | 2.28 µM (inactive) |
| CC(=O)C1CC(C)=CCC12C(=O)Nc1ccccc12 (stereo not drawn) | > 100 µM (inactive) | > 100 µM (inactive) |  | > 100 µM (inactive) | > 100 µM (inactive) | > 100 µM (inactive) | > 100 µM (inactive) | > 100 µM (inactive) | > 100 µM (inactive) |  | > 100 µM (inactive) | > 100 µM (inactive) | > 100 µM (inactive) |  |
| NC(=O)c1ccccc1NC(=O)C(=O)Nc1n[nH]c(N)n1 | > 100 µM (inactive) | > 100 µM (inactive) | > 100 µM (inactive) | > 100 µM (inactive) |  | > 100 µM (inactive) | > 100 µM (inactive) | > 100 µM (inactive) | > 100 µM (inactive) | > 100 µM (inactive) | > 100 µM (inactive) | > 100 µM (inactive) | > 100 µM (inactive) | > 100 µM (inactive) |
| Cc1ccc2oc(=O)c(-c3ccccc3)nc2c1 | 31.8 µM (inactive) | 15.3 µM (inactive) | 27 µM (inactive) | 33.7 µM (inactive) |  | 20.6 µM (inactive) |  | 34.2 µM (inactive) | 19.6 µM (inactive) | 37.5 µM (inactive) | 23.4 µM (inactive) | 43.3 µM (inactive) | 23.3 µM (inactive) | 23.1 µM (inactive) |
| N#Cc1ccccc1C(Cl)(Cl)c1cnccn1 | 74.8 µM (inactive) | 19.8 µM (inactive) | 33.3 µM (inactive) | 17.9 µM (inactive) | 22.4 µM (inactive) |  | 92.7 µM (inactive) | > 100 µM (inactive) | 37.8 µM (inactive) | 88.1 µM (inactive) |  |  | 14.6 µM (inactive) | 54.1 µM (inactive) |
| COc1ccc2c(c1)O[C@H]1c3ccc(O)cc3OC[C@@H]21 | 38.8 µM (inactive) | 22.7 µM (inactive) | 20 µM (inactive) | 20.5 µM (inactive) |  | 27.6 µM (inactive) |  | 93.5 µM (inactive) |  | 21.8 µM (inactive) | 34.8 µM (inactive) | 19.2 µM (inactive) |  | 18 µM (inactive) |
| CC(=O)OC(C)C(=O)C1c2cccc(O)c2C(=O)c2c(O)cc(C)cc21 (stereo not drawn) | 0.879 µM (active) | 1.52 µM (inactive) | 0.261 µM (active) | 0.234 µM (active) | 0.188 µM (active) | 0.31 µM (active) | 1.59 µM (inactive) | 1.12 µM (inactive) | 0.33 µM (active) | 0.41 µM (active) | 0.56 µM (active) |  | 1.09 µM (active) | 0.367 µM (active) |
| COc1cccc(/C=C/C(=O)c2sc(C(N)=S)nc2C)c1O | > 100 µM (inactive) | > 48.3 µM (inactive) | 56.4 µM (inactive) | > 100 µM (inactive) | 50.6 µM (inactive) | 38.5 µM (inactive) | > 100 µM (inactive) | > 41.5 µM (inactive) | > 62.2 µM (inactive) | > 100 µM (inactive) | > 100 µM (inactive) | > 77.4 µM (inactive) | 34.8 µM (inactive) | 34.4 µM (inactive) |
| COc1ccc2nc3c(C(=O)NCCN(C)C)cccc3cc2c1 | 1.75 µM (inactive) |  | 1.44 µM (inactive) | 1.85 µM (inactive) | 1.91 µM (inactive) | 0.908 µM (active) | 1.36 µM (inactive) | > 100 µM (inactive) | 2.96 µM (inactive) | 2.11 µM (inactive) |  |  |  |  |
| CCCNC(=O)C(C)C1CCC2(C)C=CC(=O)C(C)=C2C1O (stereo not drawn) | > 100 µM (inactive) | > 100 µM (inactive) | > 100 µM (inactive) | > 100 µM (inactive) | > 100 µM (inactive) | > 100 µM (inactive) | > 100 µM (inactive) | > 100 µM (inactive) | > 100 µM (inactive) | > 100 µM (inactive) |  |  |  | > 100 µM (inactive) |
| COc1ccc(C(c2ccc(C(C)C)cc(=O)c2O)c2c(O)cc3oc(-c4ccccc4)cc(=O)c3c2O)cc1 (stereo not drawn) | 16.5 µM (inactive) |  |  | 9.4 µM (inactive) |  | 2.81 µM (inactive) | 18.6 µM (inactive) | 17.3 µM (inactive) |  | 27.4 µM (inactive) |  | 7.26 µM (inactive) | 3.57 µM (inactive) | 7.33 µM (inactive) |
| CC(SC1=CC(=O)c2c(O)ccc(O)c2C1=O)C(=O)O (stereo not drawn) | > 48.2 µM (inactive) | 1.51 µM (inactive) | > 47.3 µM (inactive) | > 49.9 µM (inactive) | 19.5 µM (inactive) | 31.2 µM (inactive) | > 62.7 µM (inactive) | > 55.3 µM (inactive) | > 100 µM (inactive) | 35.5 µM (inactive) | > 44.5 µM (inactive) | 32.1 µM (inactive) | 23.9 µM (inactive) |  |
| C#C[C@H](CCCC)OC(=O)N[C@H](C)c1ccccc1 | > 100 µM (inactive) | 29.2 µM (inactive) | 26.9 µM (inactive) | 84.1 µM (inactive) | 28.2 µM (inactive) | 24 µM (inactive) |  | > 100 µM (inactive) | 51.3 µM (inactive) | 24.8 µM (inactive) |  | 41.8 µM (inactive) | 49.1 µM (inactive) | 30.5 µM (inactive) |
| [N-]=[N+]=CC(=O)CCC(NC(=O)C(CCC(=O)C=[N+]=[N-])NC(=O)CCC(N)C(=O)O)C(=O)O (stereo not drawn) | > 100 µM (inactive) | > 100 µM (inactive) | > 100 µM (inactive) | > 100 µM (inactive) | > 100 µM (inactive) | > 100 µM (inactive) | > 100 µM (inactive) | > 100 µM (inactive) | 31.6 µM (inactive) | > 100 µM (inactive) | > 100 µM (inactive) |  |  | > 100 µM (inactive) |
| CC1NC(=O)C2=C1C(N)=NC(=O)C2 (stereo not drawn) | > 100 µM (inactive) | > 100 µM (inactive) | > 100 µM (inactive) | > 100 µM (inactive) | > 100 µM (inactive) | > 100 µM (inactive) |  | > 100 µM (inactive) | > 100 µM (inactive) | > 100 µM (inactive) | > 100 µM (inactive) | > 100 µM (inactive) | > 100 µM (inactive) | > 100 µM (inactive) |
| CC1=NN(c2ccccc2)C(=O)C12[C@H](c1ccccc1)C2(C#N)C#N (stereo partly drawn) | 3.95 µM (inactive) | 2.88 µM (inactive) | 14.7 µM (inactive) | 3.4 µM (inactive) |  | 3.21 µM (inactive) | 16.9 µM (inactive) | 7.48 µM (inactive) | 9.64 µM (inactive) | 5.96 µM (inactive) | 4.68 µM (inactive) | 1.44 µM (inactive) | 2.41 µM (inactive) | 2.51 µM (inactive) |
| C[C@H]1COC(c2ccccn2)=N1 | > 100 µM (inactive) | > 100 µM (inactive) | > 100 µM (inactive) | > 100 µM (inactive) |  | > 100 µM (inactive) | > 100 µM (inactive) | > 100 µM (inactive) | > 100 µM (inactive) | > 100 µM (inactive) | > 100 µM (inactive) |  |  | > 100 µM (inactive) |
| CC(=O)NC(CCCNC(=O)N(C)N=O)C(=O)NCc1ccccc1 (stereo not drawn) | > 100 µM (inactive) | > 100 µM (inactive) | > 100 µM (inactive) | > 100 µM (inactive) | > 100 µM (inactive) | > 100 µM (inactive) | > 100 µM (inactive) |  | > 100 µM (inactive) | > 100 µM (inactive) | > 100 µM (inactive) | > 100 µM (inactive) | > 100 µM (inactive) | > 100 µM (inactive) |
| CC(=O)n1nnc2ccc([N+](=O)[O-])cc21 | > 100 µM (inactive) | > 100 µM (inactive) | > 100 µM (inactive) | > 100 µM (inactive) | > 100 µM (inactive) | > 100 µM (inactive) |  | 90.6 µM (inactive) | > 100 µM (inactive) | > 100 µM (inactive) | > 100 µM (inactive) | > 100 µM (inactive) | > 100 µM (inactive) | > 100 µM (inactive) |
